These results are taken from publication PMC8585833, “Serum concentrations of antidepressants, antipsychotics, and antiepileptics over the bariatric surgery procedure” (European Journal of Clinical Pharmacology, 2021).

Molecules are shown by their SMILES. Read-outs that look alike come from different tables or passages of the source.

The conditions of data set [1]: source not stated, cited from earlier work.
A short description of data set [2]: Distribution coefficient (logD), octanol/water. Format: physicochemical. As to conditions: two-phase system, pH 7.4; from logD. How it is done:
(§1) Statistical analyses were performed using SPSS, version 23.0 (IBM SPSS Statistics for Windows, Armonk, NY, USA). Participants treated with the same substance before and after surgery, with one or more trough sample concentrations available, were included in the analysis. To allow interindividual and intraindividual comparisons, serum concentrations were adjusted for defined daily dose (DDD). For example, since DDD for citalopram is 20 mg, a DDD-adjusted citalopram concentration of 100 nmol/L could represent a measured concentration of 50, 100, or 200 nmol/L, given a daily dose of 10, 20, or 40 mg, respectively. To compare pre- to post-surgery concentrations, as well as pre- to post-diet concentrations, we used Wilcoxon signed rank test for substances with samples available for six or more individuals. We used Spearman’s correlation to explore the relationship between the ratio of the post-/pre-diet concentrations and (i) the distribution coefficient for the drug in question, i.e., the logarithm of the ratio of its concentration in a lipophilic and a hydrophilic solution (logD), as well as (ii) the weight loss in kilograms for pregabalin.

Data set [3] in a line: Dose-adjusted steady-state trough serum concentrations before and after low-calorie diet and bariatric surgery. The format is in vivo, human.
Text: We designed the study as a naturalistic longitudinal, prospective case series with intra-individual comparisons of drug concentrations over time, before and up to 1 year after the surgical procedure.
The participants contributed blood samples to the current study during routine pre-surgery visits before, and post-surgery visits about 8 weeks, 6 months, and 1 year after, the surgery. Pre-surgery sampling generally occurred twice: at an initial preoperative assessment visit, and just before surgery. Between these visits, that is, before surgery, patients were required to adhere to a low-calorie diet and show a weight reduction. The samples were stored as serum in −80 °C at a biobank, and analysed after all samples had been collected.
Before every routine visit at which the sampling was to occur, we contacted the participants by telephone to systematically obtain information on the current dose as well as adherence to the drug treatment in question over the 2 preceding weeks. Samples were excluded from the data set if non-adherence less than four elimination half-lives prior to sampling was reported; exceptions were made for occasional missed doses of fluoxetine. Half-lives applied were those described for a drug or its metabolite in the summary of product characteristics. We also asked for and recorded concomitant drug treatment, weight, and smoking status. To be able to relate potential changes in concentration to health consequences, we asked the participants during the follow-up phone calls, using an open question, if anything had happened to their health since the last visit. To obtain trough blood concentrations, we strived to schedule the routine visits before lunchtime and the participants were instructed not to take morning tablets before the sampling.
Specific substances were analysed concomitantly, using clinical routine methods, at accredited laboratories at the Department of Clinical Chemistry, Sahlgrenska University Hospital, Gothenburg, Sweden, or (as for gabapentin, hydroxybupropion, mianserine, pregabalin, paroxetine and topiramate) at the Department of Clinical Pharmacology, St. Olav’s Hospital, Trondheim, Norway. Analysis methods were based on liquid chromatography/tandem mass spectrometry or (for lamotrigine and valproic acid) enzyme immunoassay.
as §1

The conditions of data set [4]: historical data or matched non-surgery subjects as controls; cited from earlier work.
Where [5] appears, read: selection limit for extremely hydrophilic or extremely lipophilic substances in literature search.

The term logD denotes the decadic logarithm of the distribution of all forms, ionised or not, between an organic phase and buffer at a given pH.

As for `CN1CCN2c3ccccc3Cc3ccccc3C2C1` (centres unmarked) [Mianserine], the log distribution coefficient (logD) in data set [1] (octanol/water, pH 7.4) was 3.14. Besides, the “Abundance in octanol relative to water” value in data set [2] is given as “more than 1 000 fold”. Moreover, in data set [3] (human, in vivo), the “Dose-adjusted drug concentration Median (IQR), Pre-diet/pre-surgery” value was 255 (N/A) nmol/L; the “Dose-adjusted drug concentration Median (IQR), post-diet” value is given as 201 (N/A) nmol/L; the “Dose-adjusted drug concentration Median (IQR), pre-diet” value is given as 255 (N/A) nmol/L. Moreover, the “Dose-adjusted drug concentration Median (IQR), Post-surgery” value in data set [3] (human, in vivo, 379 days after surgery (median), trough) was 183 (N/A) nmol/L.
In the case of `CC(C)C[C@H](CN)CC(=O)O` [Pregabalin], the logD in data set [1] (octanol/water, pH 7.4) is −1.35. Besides, the “Abundance in water relative to octanol” value in data set [2] was above 20 fold. The “Dose-adjusted drug concentration Median (IQR), Pre-diet/pre-surgery” value in data set [3] (Table 2A, antiepileptics, trough serum, adjusted for dose in DDDs) was 8.5 (5.8–16) µmol/L. The “Dose-adjusted drug concentration Median (IQR), post-diet” value in data set [3] (Table 2B, antiepileptics, trough serum, adjusted for dose in DDDs, after pre-surgery low-calorie diet) is 25 (8–33) µmol/L. Further, the “Dose-adjusted drug concentration Median (IQR), pre-diet” value in data set [3] (Table 2B, antiepileptics, trough serum, adjusted for dose in DDDs, before low-calorie diet) is given as 9.5 (7–21) µmol/L. Further, in data set [3] (after the pre-surgery diet, before surgery, median weight reduction 6 kg), the “Change in dose-adjusted concentration over the pre-surgery low-calorie diet” value is on record as “increased”. In addition, in data set [3] (human, in vivo, Table 2A, antiepileptics, trough serum, adjusted for dose in DDDs, last observation carried forward, median 379 days after surgery, read-out: Dose-adjusted drug concentration Median (IQR), Post-surgery), the concentration at 379 days after surgery (median), trough came to 13 µM.
For `CN(C)C(=N)N=C(N)N` [metformin], the “Concentration change after the bariatric surgery procedure” value (“Concentration change” below) in data set [4] is given as “appeared to increase”.
Turning to `COc1c(N2C[C@@H]3CCCN[C@@H]3C2)c(F)cc2c(=O)c(C(=O)O)cn(C3CC3)c12` [moxifloxacin], the “Concentration change” value in data set [4] is recorded as “appeared to increase”.
In the case of `CO[C@H]1C[C@@H]2CC[C@@H](C)[C@@](O)(O2)C(=O)C(=O)N2CCCC[C@H]2C(=O)O[C@H]([C@H](C)C[C@@H]2CC[C@@H](O)[C@H](OC)C2)CC(=O)[C@H](C)/C=C(\C)[C@@H](O)[C@@H](OC)C(=O)[C@H](C)C[C@H](C)/C=C/C=C/C=C/1C` [sirolimus], the pH-dependent lipophilicity (logD) in data set [1] (setting [5]) is recorded as above 4. In data set [4], the “Concentration change” value is reported as “appeared to decrease”.
In the case of `C=CC[C@@H]1/C=C(\C)C[C@H](C)C[C@H](OC)[C@H]2O[C@@](O)(C(=O)C(=O)N3CCCC[C@H]3C(=O)O[C@H](/C(C)=C/[C@@H]3CC[C@@H](O)[C@H](OC)C3)[C@H](C)[C@@H](O)CC1=O)[C@H](C)C[C@@H]2OC` [tacrolimus], in data set [1] (setting [5]), the logD was above 4. The “Concentration change” value in data set [4] is “appeared to decrease”.
As to `CC/C(=C(\c1ccccc1)c1ccc(OCCN(C)C)cc1)c1ccccc1` [tamoxifen], the “Concentration change” value in data set [4] was “appeared to decrease”.
